Results reported in US20230320970A1, “Skin Care Compositions” (Colgate-Palmolive Company, priority 2022, published 2023).

Key:
[1] = tested on: human derived keratinocytes; experiment: ROS production in H2O2-treated keratinocytes (alpha-tocopherol, EGT, niacinamide), ROS Detection Assay Kit; assay type: cell-based; settings: alpha-tocopherol (0.001%) [sic], EGT 0.01%, niacinamide 0.01%; for % Decrease in ROS generated in keratinocyte: relative to 0.3 wt. % H2O2 treatment; for Fold Change, decrease in ROS generated in keratinocyte by antioxidant treatment: vs. 0.1% DMSO + 0.3% H2O2
Protocol: Hydrogen peroxide treated cells were then treated with: alpha-tocopherol, ergothioneine and niacinamide, respectively and in combination. […] [table] […] [table]

[2] = tested on: human derived keratinocytes; experiment: ROS production in H2O2-treated keratinocytes (alpha-tocopherol, EGT, sodium PCA), ROS Detection Assay Kit; assay type: cell-based; settings: alpha-tocopherol 0.001%, EGT 0.01%, Na PCA 0.01%; for % Decrease in ROS generated in keratinocyte: relative to 0.3 wt. % H2O2 treatment; for Fold Change, decrease in ROS generated in keratinocyte by antioxidant treatment: vs. 0.1 wt. % DMSO + 0.3 wt. % H2O2
Source text: Sample preparation: Human derived keratinocytes, plated on 24-well plates.
Cellular ROS/Superoxide Detection Assay Kit (Abcam—ab139476)

[3] = cited from earlier work

SMILES | % Decrease in ROS generated in keratinocyte [1] | Fold Change, decrease in ROS generated in keratinocyte by antioxidant treatment [1] | % Decrease in ROS generated in keratinocyte [2] | % Decrease in ROS generated in keratinocyte ([2]; listed as α-tocopherol) | Fold Change, decrease in ROS generated in keratinocyte by antioxidant treatment [2] | % Decrease in ROS generated in keratinocyte ([2]; listed as Sodium PCA) | Log P [3]
Cc1c(C)c2c(c(C)c1O)CC[C@@](C)(CCC[C@H](C)CCC[C@H](C)CCCC(C)C)O2 [Alpha-tocopherol, alpha-tocopherol] | 20.79% | 0.4-fold decrease | 70.72% | 70.72% | 4.21-fold decrease | – | –
C[N+](C)(C)[C@@H](Cc1c[nH]c(=S)[nH]1)C(=O)[O-] [EGT, Ergothioneine] | 15.91% | 0.31-fold decrease | 74.5% | – | 4.43-fold decrease | – | –
O=C1CCC(C(=O)[O-])N1.[Na+] (stereo not drawn) [Na PCA, Sodium PCA] | 25.75% | – | 37.88% | – | 2.25-fold decrease | 37.9% | –
NC(=O)c1cccnc1 [Niacinamide] | – | 0.24-fold decrease | – | – | – | – | –
O=C1O[C@H]([C@@H](O)CO)C(O)=C1O[C@H]1O[C@H](CO)[C@@H](O)[C@H](O)[C@H]1O [ascorbyl glucoside] | – | – | – | – | – | – | −2.5
